Consider 1 sequence from patent US8450278B2, “MUC18 targeting peptides” (Board of Regents, The University of Texas System, priority 2008, dated 2013).

“Also recorded” adds a separate entry of the source.

The experiment deals with B16 melanoma cells. The experiment can be described thus: Phage binding assay on B16 melanoma cells pre and post co-culture with B-1 lymphocytes. The format is cell-based, mouse. From the text:
The inventors used a random phage library displaying the insert CX7C(C, cysteine; X, any residue) for selection of peptides binding to melanoma cells post co-culture with B-1 lymphocytes (Giordano et al., 2001). As a pre-clearing step, 10^6 B16 cells without exposure to B-1 lymphocytes were detached, washed and resuspended in RPMI containing 2% BSA plus 10^9 transducing units (TU) of unselected phage library. Cells and phage were transferred to the top of a non-miscible organic lower phase (dibutyl phthalate: cyclohexane, 9:1 [v:v]) and centrifuged at 10,000 g for 10 min. The unbound phage population remaining in the aqueous upper phase (pre-cleared library) was collected into a fresh eppendorf tube and incubated with 10^6 B16 cells isolated post co-culture with B-1 lymphocytes. Phage in the organic lower phase were recovered from the cell pellet by bacterial host infection (Pasqualini et al., 2000; Cardo-Vila et al., 2003; Marchio et al., 2004; Marchio et al., 2004; Kolonin et al., 2004; Arap et al, 2004; Hajitou et al., 2006).
For phage binding assays to B16 melanoma, 10^6 cells pre and post co-culture with B-1 lymphocytes were incubated with each specific phage clone (10^9 TU) or negative controls. Melanoma cells and phage were centrifuged through the organic phase and the cell-bound phage clones were recovered by bacterial infection (Giordano et al., 2001).

As for CLFMRLAWC [SEQ ID NO:1], the “phage/peptide binding to melanoma cells (in words)” value is “marked enrichment in phage binding; also recorded: selectively bind to cancerous cells”.
